Legend:
Type in all cases: cell-based
Aspergillus flavus = assay: Agar plate disc-diffusion, antifungal inhibition zone; conditions: 72 hours, DMSO control zone subtracted
Experimental: (§1) The agar plate disc-diffusion method was applied. Sterilized filter papers (6 mm in diameter) were wetted with 10 μL of a solution of 6′-(4-chlorophenyl)-2′-ethoxy-3,4′-bipyridine-3′-carbonitrile (4) or 6′-(4-chlorophenyl)-2′-methoxy-3,4′-bipyridine-3′-carbonitrile (5) to be tested, containing […], and the discs were allowed to air dry. The discs were then placed onto the surface of agar plates (nutrient agar for bacteria and Sabouraud's dextrose agar for fungi) seeded with the test organism. Each plate contained 15 mL of the agar medium, previously seeded with 0.2 mL of the broth culture of each organism pregrown for 18 hours. The plates were incubated at 37° C. for 48 hours, and 72 hours for fungi. The inhibition zones were measured in mm. Discs impregnated with DMSO were used as a control, and its inhibition zone was subtracted from the tested compound actual inhibition zone.
(§2) The results of the antimicrobial testing can be observed in Tables 1 and 2, below, using ciprofloxacin as a reference.

[1] = test system: Chrysosporium keratinophilum; assay: as above; conditions: 72 hours, DMSO control zone subtracted
Experimental: as §1, §2

different microbes = assay: Antimicrobial testing, overall statement on Tables 1 and 2; conditions: summary of Tables 1 and 2, bacteria and fungi
Experimental: as §1
Their antibacterial activity was screened against gram positive bacteria namely Bacillus cereus and Staphylococcus aureus and gram-negative bacterial strains namely Pseudomonas aeruginosa and Escherichia coli, while their antifungal activity was screened against Aspergillus flavus and Chrysosporium keratinophilum.

Staphylococcus aureus = assay: Agar plate disc-diffusion, antibacterial inhibition zone; conditions: DMSO control zone subtracted
Experimental: as §1, §2

Pseudomonas aeruginosa = assay: as above; conditions: DMSO control zone subtracted
Experimental: as §1, §2

Escherichia coli = assay: as above; conditions: DMSO control zone subtracted
Experimental: as §1, §2

Bacillus cereus = assay: as above; conditions: DMSO control zone subtracted
Experimental: as §1, §2

[2] = A = concentration of comp. = 10,000 μL
[3] = B = concentration of comp. = 30,000 μL
[4] = C = concentration of comp. = 50,000 μL

Row | SMILES | inhibition zone (Aspergillus flavus; [2]) [mm] | inhibition zone (Aspergillus flavus; [3]) [mm] | inhibition zone (Aspergillus flavus; [4]) [mm] | inhibition zone [1, 2] [mm] | inhibition zone [1, 3] [mm] | inhibition zone [1, 4] [mm] | antimicrobial activities (in words) (different microbes) | inhibition zone (Staphylococcus aureus; [2]) [mm] | inhibition zone (Staphylococcus aureus; [3]) [mm] | inhibition zone (Staphylococcus aureus; [4]) [mm] | inhibition zone (Pseudomonas aeruginosa; [2]) [mm] | inhibition zone (Pseudomonas aeruginosa; [3]) [mm] | inhibition zone (Pseudomonas aeruginosa; [4]) [mm] | inhibition zone (Escherichia coli; [2]) [mm] | inhibition zone (Escherichia coli; [3]) [mm] | inhibition zone (Escherichia coli; [4]) [mm] | inhibition zone (Bacillus cereus; [2]) [mm] | inhibition zone (Bacillus cereus; [3]) [mm] | inhibition zone (Bacillus cereus; [4]) [mm]
1 | CCOc1nc(-c2ccc(Cl)cc2)cc(-c2cccnc2)c1C#N [Compound 4, 6′-(4-chlorophenyl)-2′-ethoxy-3,4′-bipyridine-3′-carbonitrile] | 21 | 26 | 37 | 24 | 29 | 42 | high antimicrobial activities | 15 | 18 | 31 | 25 | 29 | 39 | 27 | 38 | 52 | 24 | 27 | 39
2 | O=C(O)c1cn(C2CC2)c2cc(N3CCNCC3)c(F)cc2c1=O [Cip., ciprofloxacin, reference compound] | 29 | 30 | 42 | 29 | 30 | 53 | – | 43 | 44 | 53 | 29 | 30 | 53 | 30 | 39 | 60 | 29 | 30 | 42
3 | COc1nc(-c2ccc(Cl)cc2)cc(-c2cccnc2)c1C#N [Compound 5, 6′-(4-chlorophenyl)-2′-methoxy-3,4′-bipyridine-3′-carbonitrile] | 25 | 28 | 40 | 23 | 28 | 41 | high antimicrobial activities | 17 | 24 | 30 | 26 | 30 | 42 | 28 | 37 | 53 | 26 | 28 | 39

From patent US11970476B1, “6′-(4-chlorophenyl)-2′-alkoxy-3,4′-bipyridine-3′-carbonitriles as antimicrobial compounds” (KING FAISAL UNIVERSITY, priority 2023, dated 2024)
